Experimental data as given in patent US20090068098A1, “ANTIBODIES AND RELATED MOLECULES THAT BIND TO 58P1D12 PROTEINS” (priority 2007, published 2009).

Test system: LAPC9-AI androgen-independent prostate tumor xenografts
Experiment: Established LAPC9-AI prostate tumor xenografts in tibiae, monotherapy and combination with Carboplatin
Assay type: in vivo, mouse
Details: day 33, vs control antibody; MAb 2 mg loading then 1.0 mg i.p. twice weekly, 7 doses; Carboplatin 40 mg/kg i.v. days 7, 11, 15, 19, 22, 26
Experimental: FIG. 16. […] The tumors were allowed to establish for 7 days, at which time the animals were randomized and assigned to four different groups (n=10 in each group) as indicated in the graph. […] Carboplatin (40 mg/kg) was administered to the mice intravenously (i.v.) on days 7, 11, 15, 19, 22 and 26. On day 33 all mice were sacrificed and the tumors were excised and weighed on an electronic balance.
The tumors were allowed to establish for 7 days, at which time the animals were randomized and assigned to four different groups (n=10 in each group). […] Carboplatin (40 mg/kg) was administered to the mice intravenously (i.v.) on days 7, 11, 15, 19, 22 and 26. On day 33 all mice were sacrificed and the tumors were excised and weighed on an electronic balance.

N.N.O=C([O-])C1(C(=O)[O-])CCC1.[Pt+2] [Carboplatin]
inhibition of tumor growth (tumor weight): 87%
